Here are results for two compounds from paper PMC12048343, “Discovery of a small molecule secreted clusterin enhancer that improves memory in Alzheimer’s disease mice” (npj Drug Discovery, 2025).

Data set [1] is described as follows: Plasma binding assay (dialysis). The format is in vitro ADME. The conditions noted are these: dialysis 4.5 hours, 37 °C. Here is the method:
Brain tissue was homogenized in PBS (pH 7.4) (1: 3 weight(mg)/volume(µL)) and the protein concentration was determined using the Micro BCA™ Protein Assay Kit (Thermo Fisher Scientific, Cat#23235). Brain homogenate was clarified and diluted to 20 mg/mL in PBS (pH 7.4). Either brain homogenate or plasma was and added to Slide-A-Lyzer™ MINI Dialysis Devices, 10 K MWCO dialysis cups (Thermo Fisher Scientific, Cat#PI88401) in a 48-well plate containing PBS (500 µL; pH 7.4). 1 µL of 1 mM compound was added to the brain homogenate (Final Concentration: 2 µM compound, 0.5% DMSO) and incubated on a rocker for 4.5 hours at 37 °C. 50 µL of brain homogenate or plasma (within the dialysis cup) and PBS (within the 48-well plate) were transferred to new microcentrifuge tubes containing 400 µL of quenching reagent (100% Acetonitrile) containing internal standard. Solutions were clarified by centrifugation (16,000 x g, 5 min), and the supernatants were transferred to new tubes and lyophilized. Samples were reconstituted in 100 µL of 50/50/0.1 (Water/Acetonitrile/Formic Acid) prior to analysis via liquid chromatography-tandem mass spectrometry (LC-MS/MS). The % of the unbound drug (fu,bound) was calculated using the following equation:
% Bound = [1− (PBS chromatographic peak area/ brain homogenate or plasma chromatographic peak area)] x 100

Data set [2] in a line: Blood-Brain Barrier (BBB) permeability assay (IAM column, Pm). The format is in vitro ADME. Particulars: pH 7.4; Pm > 1.0 = CNS+. Here is the method:
A liquid chromatography-ultraviolet/visible spectroscopy (LC-UV/Vis) assay was performed on a 1290 Infinity HPLC system (Agilent Technologies) with an HPLC column containing immobilized phosphatidylcholine (IAM.PC.DD, Regis Technologies, Cat#774011, 5 µm 300 Å 100 ×4.6 mm). The HPLC method was a mixture of 6.7 mM phosphate buffer saline (pH 7.4; solvent A) and acetonitrile (solvent B), and a gradient was used for the elution of the compounds (min/%B: 0/20, 20/60, 21/20, 30/20). The retention time of the compound (tr) and void volume time of the column (t0) were recorded. Blood-brain barrier (BBB) permeability (Pm) was calculated using the following equations as described by Yoon et al. (10.1177/1087057105281656):
KIAM = (tr − t0) / t0; Pm = (KIAM / MW^4) x 10^10
Compounds with a Pm > 1.0 were determined to be BBB permeable (CNS + ) at pH 7.

Data set [3] concerns sCLU secreted from human U-87 MG glioblastoma cells. The experiment in a line: Human sCLU AlphaLISA on supernatant of U-87 MG cells (HTS, re-test, dose response). The format is cell-based. The conditions noted are these: Homo sapiens; U-87 MG cells, 30 h, AlphaLISA of supernatant; read-out: EC50 for sCLU increase. Here is the method:
Cell culture supernatant (2 μL) was added to a 384-well proxy plate preloaded with AlphaLISA HiBlock buffer (2 µL, 1X, CAT#AL004C, Perkin Elmer). Then an anti-sCLU antibody mixture (2 µL, mAb J84, biotinylated (10 nM, Cat# 3717-6-1000, Mabtech) and mAb CLU aa 22-227 (Cat#AF7084, R&D Systems), Acceptor bead conjugated (50 µg/mL, Cat#6772001, Perkin Elmer)) was added and incubated at room temperature for 1 hour. AlphaScreen Streptavidin Donor beads (2 µL, Cat#6760002S, Perkin Elmer) were added, incubated for an additional 30 min in the dark, and the plate was read in an Envision plate reader.
Human glioblastoma U-87 MG cells were proliferated in EMEM with 10% FBS and 1% P/S (complete medium) in 10 cm dishes until approximately 90% confluent. Following trypsinization, a suspension of 2 × 10^5 cells/mL (25 µL) were added to 384-well plates containing complete medium (25 µL) and library compounds from 9 plates (5 µM). After incubation for 30 h at 37 °C and 5% CO2, 2 μL of cell culture supernatant were analyzed via human sCLU AlphaLISA as described above. Cell culture medium and cells were added to the 384-well plates using the MultiDrop. The BioMek FX was used to pin the drugs and transfer the cell culture supernatant. The MANTIS liquid handler was used to added human sCLU AlphaLISA reagents.
Human glioblastoma U-87 MG cells were proliferated in EMEM with 10% FBS and 1% P/S (complete medium) in 10 cm dishes until approximately 90% confluent. […] After incubation for 30 hours at 37 °C and 5% CO2, 2 μL of cell culture supernatant were analyzed via human sCLU AlphaLISA as described above.

Data set [4] concerns the target BRD2 (Homo sapiens, UniProt P25440). The experiment in a line: BRD2 inhibition assay. The format is biochemical.
Data set [5] relates to U-87 MG cells. The experiment in a line: Cytotoxicity, MultiTox-Fluor (CNS gliotoxicity). Particulars: U-87 MG, up to 50 µM. From the text: Cell viability and toxicity were simultaneously assessed using the MultiTox-Fluor Multiplex Cytotoxicity Assay (Cat# PRG9200, Fisher Scientific) according to the manufacturer’s protocol.

Sequence of BRD2 (P25440 whole entry): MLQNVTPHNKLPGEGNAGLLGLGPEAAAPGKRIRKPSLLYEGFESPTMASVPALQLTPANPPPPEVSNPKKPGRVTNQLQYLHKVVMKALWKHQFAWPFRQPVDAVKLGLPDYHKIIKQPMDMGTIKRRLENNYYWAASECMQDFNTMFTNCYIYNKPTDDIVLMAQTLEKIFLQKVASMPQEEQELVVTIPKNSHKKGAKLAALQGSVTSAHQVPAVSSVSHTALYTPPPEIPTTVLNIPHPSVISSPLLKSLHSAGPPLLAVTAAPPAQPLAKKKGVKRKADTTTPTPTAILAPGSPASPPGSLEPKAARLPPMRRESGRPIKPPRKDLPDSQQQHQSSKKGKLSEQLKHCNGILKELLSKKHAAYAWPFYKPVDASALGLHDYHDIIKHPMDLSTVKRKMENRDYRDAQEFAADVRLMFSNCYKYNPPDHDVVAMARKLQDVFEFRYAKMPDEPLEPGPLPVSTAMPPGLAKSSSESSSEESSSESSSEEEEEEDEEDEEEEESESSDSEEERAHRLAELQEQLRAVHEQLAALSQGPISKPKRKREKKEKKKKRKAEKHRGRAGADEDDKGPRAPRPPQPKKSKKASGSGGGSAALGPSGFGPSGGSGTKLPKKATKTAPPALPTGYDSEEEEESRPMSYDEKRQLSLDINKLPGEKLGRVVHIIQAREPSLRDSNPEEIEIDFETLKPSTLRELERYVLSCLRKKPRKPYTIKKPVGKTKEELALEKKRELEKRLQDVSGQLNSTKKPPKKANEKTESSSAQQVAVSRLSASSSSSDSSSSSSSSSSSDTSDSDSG

`Cc1sc2c(c1C)C(c1ccc(Cl)cc1)=N[C@@H](CC(=O)OC1COC1)c1nnc(C)n1-2` [DDL-356]: the “Plasma Binding” value in data set [1] is 79 % bound. Moreover, the “PAMPA Pm” value in data set [2] amounted to 0.96. Moreover, in data set [3], the EC50 came to 178 nM. This compound also registered an IC50 in data set [4] of 158 nM.
Regarding `Cc1sc2c(c1C)C(c1ccc(Cl)cc1)=N[C@@H](CC(=O)OC1CC1)c1nnc(C)n1-2` [DDL-357], the “Plasma Binding” value in data set [1] is reported as 88 % bound. In addition, the Ctox in data set [5] is on record as not below 50 µM. In addition, in data set [2], the “PAMPA Pm” value was 1.66. The EC50 in data set [3] came to 223 nM. Also, in data set [4], inhibition was half-maximal at 161 nM (IC50).
